Reference: ChEMBL document CHEMBL1201862, “PubChem BioAssay data set” (2004)
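Briefly, cells in 96-well plates were exposed to five compound concentrations for 48 h, and endpoints were estimated by linear interpolation. The concentration for 50% growth inhibition is given as GI50.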 Active and inactive are the calls of the source. No stated cut-off is given here; in the data, active = GI50 up to about 1.1 µM and inactive = higher.

Assays:
Experiment in all cases: inhibition of tumour cell growth, NCI panel, 48 h
SNB-75 = tested on: SNB-75
SNB-19 = tested on: SNB-19
SK-MEL-28 = tested on: SK-MEL-28
RPMI-8226 = tested on: RPMI-8226
SF-539 = tested on: SF-539
RXF 393 = tested on: RXF 393
ACHN = tested on: ACHN
A549 = tested on: A549
SK-MEL-5 = tested on: SK-MEL-5
MOLT-4 = tested on: MOLT-4
U-251 = tested on: U-251
SR = tested on: SR
T47D = tested on: T47D
HOP-62 = tested on: HOP-62
HCT-15 = tested on: HCT-15
HOP-92 = tested on: HOP-92
MDA-MB-231 = tested on: MDA-MB-231
786-0 = tested on: 786-0
NCI-H522 = tested on: NCI-H522
A498 = tested on: A498
PC-3 = tested on: PC-3
SW-620 = tested on: SW-620
MDA-N = tested on: MDA-N
SK-MEL-2 = tested on: SK-MEL-2
KM12 = tested on: KM12
NCI/ADR-RES = tested on: NCI/ADR-RES
MCF7 = tested on: MCF7
HT-29 = tested on: HT-29
OVCAR-8 = tested on: OVCAR-8
EKVX = tested on: EKVX
BT-549 = tested on: BT-549
OVCAR-3 = tested on: OVCAR-3
MDA-MB-435 = tested on: MDA-MB-435
HL-60 = tested on: HL-60
IGROV-1 = tested on: IGROV-1
DU-145 = tested on: DU-145
OVCAR-4 = tested on: OVCAR-4
SK-OV-3 = tested on: SK-OV-3
NCI-H23 = tested on: NCI-H23
Malme-3M = tested on: Malme-3M
M14 = tested on: M14
CCRF-CEM = tested on: CCRF-CEM
TK-10 = tested on: TK-10
HCT-116 = tested on: HCT-116
LOX IMVI = tested on: LOX IMVI
COLO 205 = tested on: COLO 205
SN12C = tested on: SN12C
NCI-H460 = tested on: NCI-H460
OVCAR-5 = tested on: OVCAR-5
SF-268 = tested on: SF-268
SF-295 = tested on: SF-295
UACC-257 = tested on: UACC-257
K562 = tested on: K562
UACC-62 = tested on: UACC-62
Hs-578T = tested on: Hs-578T
NCI-H226 = tested on: NCI-H226
CAKI-1 = tested on: CAKI-1
UO-31 = tested on: UO-31

Compound: CC(=O)OC1(C)N=NC2(CCCCC2)O1 (stereo unspecified)
- GI50 (SNB-75): > 100 µM (inactive)
- GI50 (SNB-19): > 100 µM (inactive)
- GI50 (SK-MEL-28): > 100 µM (inactive)
- GI50 (RPMI-8226): > 100 µM (inactive)
- GI50 (SF-539): > 100 µM (inactive)
- GI50 (RXF 393): > 100 µM (inactive)
- GI50 (ACHN): > 100 µM (inactive)
- GI50 (A549): > 100 µM (inactive)
- GI50 (SK-MEL-5): > 100 µM (inactive)
- GI50 (MOLT-4): > 100 µM (inactive)
- GI50 (U-251): > 100 µM (inactive)
- GI50 (SR): > 100 µM (inactive)
- GI50 (T47D): > 100 µM (inactive)
- GI50 (HOP-62): > 100 µM (inactive)
- GI50 (HCT-15): > 100 µM
- GI50 (HOP-92): > 100 µM (inactive)
- GI50 (MDA-MB-231): > 100 µM (inactive)
- GI50 (786-0): > 100 µM (inactive)
- GI50 (NCI-H522): > 100 µM (inactive)
- GI50 (A498): > 100 µM (inactive)
- GI50 (PC-3): > 100 µM (inactive)
- GI50 (SW-620): > 100 µM (inactive)
- GI50 (MDA-N): > 100 µM (inactive)
- GI50 (SK-MEL-2): > 100 µM (inactive)
- GI50 (KM12): > 100 µM (inactive)
- GI50 (NCI/ADR-RES): > 100 µM (inactive)
- GI50 (MCF7): > 100 µM (inactive)
- GI50 (HT-29): > 100 µM (inactive)
- GI50 (OVCAR-8): > 100 µM (inactive)
- GI50 (EKVX): > 100 µM (inactive)
- GI50 (BT-549): > 100 µM (inactive)
- GI50 (OVCAR-3): > 100 µM (inactive)
- GI50 (MDA-MB-435): > 100 µM (inactive)
- GI50 (HL-60): 18.9 µM (inactive)
- GI50 (IGROV-1): > 100 µM (inactive)
- GI50 (DU-145): > 100 µM (inactive)
- GI50 (OVCAR-4): > 100 µM (inactive)
- GI50 (SK-OV-3): > 100 µM (inactive)
- GI50 (NCI-H23): > 100 µM (inactive)
- GI50 (Malme-3M): > 100 µM (inactive)
- GI50 (M14): > 100 µM (inactive)
- GI50 (CCRF-CEM): > 100 µM (inactive)
- GI50 (TK-10): > 100 µM (inactive)
- GI50 (HCT-116): > 100 µM (inactive)
- GI50 (LOX IMVI): > 100 µM (inactive)
- GI50 (COLO 205): > 100 µM (inactive)
- GI50 (SN12C): > 100 µM (inactive)
- GI50 (NCI-H460): > 100 µM (inactive)
- GI50 (OVCAR-5): > 100 µM (inactive)
- GI50 (SF-268): > 100 µM (inactive)
- GI50 (SF-295): > 100 µM (inactive)
- GI50 (UACC-257): > 100 µM (inactive)
- GI50 (K562): > 100 µM (inactive)
- GI50 (UACC-62): > 100 µM (inactive)
- GI50 (Hs-578T): > 100 µM (inactive)
- GI50 (NCI-H226): > 100 µM (inactive)
- GI50 (CAKI-1): > 100 µM (inactive)

Compound: O=[N+]([O-])c1cccc(/C=N/NC2=CS(=O)(=O)C=C2)c1
- GI50 (SNB-75): 91 µM (inactive)
- GI50 (UO-31): > 100 µM (inactive)
- GI50 (SNB-19): > 100 µM (inactive)
- GI50 (SK-MEL-28): > 100 µM (inactive)
- GI50 (RPMI-8226): > 100 µM (inactive)
- GI50 (SF-539): > 100 µM (inactive)
- GI50 (RXF 393): > 100 µM (inactive)
- GI50 (ACHN): > 100 µM (inactive)
- GI50 (A549): > 100 µM (inactive)
- GI50 (SK-MEL-5): > 100 µM (inactive)
- GI50 (MOLT-4): > 100 µM (inactive)
- GI50 (U-251): > 100 µM (inactive)
- GI50 (SR): > 100 µM (inactive)
- GI50 (T47D): > 100 µM (inactive)
- GI50 (HOP-62): > 100 µM (inactive)
- GI50 (HCT-15): > 100 µM
- GI50 (HOP-92): > 100 µM (inactive)
- GI50 (MDA-MB-231): > 100 µM (inactive)
- GI50 (786-0): > 100 µM (inactive)
- GI50 (NCI-H522): > 100 µM (inactive)
- GI50 (A498): > 100 µM (inactive)
- GI50 (PC-3): > 100 µM (inactive)
- GI50 (SW-620): > 100 µM (inactive)
- GI50 (MDA-N): > 100 µM (inactive)
- GI50 (SK-MEL-2): > 100 µM (inactive)
- GI50 (KM12): > 100 µM (inactive)
- GI50 (NCI/ADR-RES): > 100 µM (inactive)
- GI50 (MCF7): > 100 µM (inactive)
- GI50 (HT-29): > 100 µM (inactive)
- GI50 (OVCAR-8): > 100 µM (inactive)
- GI50 (EKVX): > 100 µM (inactive)
- GI50 (BT-549): 78.7 µM (inactive)
- GI50 (OVCAR-3): > 100 µM (inactive)
- GI50 (MDA-MB-435): > 100 µM (inactive)
- GI50 (HL-60): 42.6 µM (inactive)
- GI50 (IGROV-1): > 100 µM (inactive)
- GI50 (DU-145): > 100 µM (inactive)
- GI50 (OVCAR-4): > 100 µM (inactive)
- GI50 (SK-OV-3): > 100 µM (inactive)
- GI50 (NCI-H23): > 100 µM (inactive)
- GI50 (Malme-3M): > 100 µM (inactive)
- GI50 (M14): > 100 µM (inactive)
- GI50 (CCRF-CEM): > 100 µM (inactive)
- GI50 (TK-10): > 100 µM (inactive)
- GI50 (HCT-116): > 100 µM (inactive)
- GI50 (LOX IMVI): > 100 µM (inactive)
- GI50 (COLO 205): > 100 µM (inactive)
- GI50 (SN12C): > 100 µM (inactive)
- GI50 (NCI-H460): > 100 µM (inactive)
- GI50 (OVCAR-5): > 100 µM (inactive)
- GI50 (SF-268): > 100 µM (inactive)
- GI50 (SF-295): > 100 µM (inactive)
- GI50 (UACC-257): > 100 µM (inactive)
- GI50 (K562): > 100 µM (inactive)
- GI50 (UACC-62): > 100 µM (inactive)
- GI50 (Hs-578T): > 100 µM (inactive)
- GI50 (NCI-H226): > 100 µM (inactive)
- GI50 (CAKI-1): > 100 µM (inactive)

Compound: O=[N+]([O-])c1ccc2nc3ccc([N+](=O)[O-])cn3c2c1
- GI50 (SNB-75): 43.1 µM (inactive)
- GI50 (UO-31): 29.9 µM (inactive)
- GI50 (SNB-19): 36.1 µM (inactive)
- GI50 (SK-MEL-28): > 100 µM (inactive)
- GI50 (SF-539): 52.6 µM (inactive)
- GI50 (RXF 393): 48.9 µM (inactive)
- GI50 (ACHN): > 100 µM (inactive)
- GI50 (A549): 39.1 µM (inactive)
- GI50 (SK-MEL-5): > 100 µM (inactive)
- GI50 (MOLT-4): > 100 µM (inactive)
- GI50 (U-251): 36 µM (inactive)
- GI50 (SR): > 100 µM (inactive)
- GI50 (T47D): > 100 µM (inactive)
- GI50 (HOP-62): 17.6 µM (inactive)
- GI50 (HCT-15): > 100 µM
- GI50 (HOP-92): > 100 µM (inactive)
- GI50 (MDA-MB-231): 33 µM (inactive)
- GI50 (786-0): 34.4 µM (inactive)
- GI50 (NCI-H522): 23.7 µM (inactive)
- GI50 (A498): 20.7 µM (inactive)
- GI50 (PC-3): > 100 µM (inactive)
- GI50 (SW-620): > 100 µM (inactive)
- GI50 (MDA-N): > 100 µM (inactive)
- GI50 (SK-MEL-2): > 100 µM (inactive)
- GI50 (KM12): > 100 µM (inactive)
- GI50 (NCI/ADR-RES): > 100 µM (inactive)
- GI50 (MCF7): 63.7 µM (inactive)
- GI50 (HT-29): 83 µM (inactive)
- GI50 (OVCAR-8): 39 µM (inactive)
- GI50 (EKVX): 29.4 µM (inactive)
- GI50 (BT-549): > 100 µM (inactive)
- GI50 (MDA-MB-435): > 100 µM (inactive)
- GI50 (HL-60): > 100 µM (inactive)
- GI50 (IGROV-1): 97.1 µM (inactive)
- GI50 (DU-145): 39.2 µM (inactive)
- GI50 (OVCAR-4): 29.1 µM (inactive)
- GI50 (SK-OV-3): > 100 µM (inactive)
- GI50 (NCI-H23): > 100 µM (inactive)
- GI50 (Malme-3M): 92.5 µM (inactive)
- GI50 (M14): > 100 µM (inactive)
- GI50 (CCRF-CEM): > 100 µM (inactive)
- GI50 (TK-10): 98.6 µM (inactive)
- GI50 (HCT-116): 33.4 µM (inactive)
- GI50 (LOX IMVI): 85.1 µM (inactive)
- GI50 (COLO 205): > 100 µM (inactive)
- GI50 (SN12C): 42.4 µM (inactive)
- GI50 (NCI-H460): 43.3 µM (inactive)
- GI50 (OVCAR-5): 32.5 µM (inactive)
- GI50 (SF-268): 30.5 µM (inactive)
- GI50 (SF-295): > 100 µM (inactive)
- GI50 (UACC-257): > 100 µM (inactive)
- GI50 (K562): > 100 µM (inactive)
- GI50 (UACC-62): 86.3 µM (inactive)
- GI50 (Hs-578T): 27.4 µM (inactive)
- GI50 (NCI-H226): > 100 µM (inactive)
- GI50 (CAKI-1): 33 µM (inactive)
